Like-named read-outs stand apart in the source and are kept apart here.
Experiments:
Format in all cases: cell-based
human IL-1β = assay: Inhibition of IL-1β production by stimulated human peripheral blood leukocytes in vitro (ELISA); conditions: PBL; for inhibition at 10 µM / inhibition at 50 µM: Homo sapiens, Leukocyte, read-out: Percentage of inhibition of IL-1β production
Description: (§1) Substances, used in in vitro experiments, were dissolved in dimethyl sulfoxide (DMSO) (Kemika, Croatia) at concentrations of 50 mM and 10 mM and were further diluted to the final concentrations of […] in 1 mL Dulbecco's modified Eagle medium (DMEM) supplemented with 1% heat inactivated fetal bovine serum (FBS), 1% glutamax, 50 U/ml penicillin, 50 μg/ml streptomycin and 2.5 μg/mL Fungizone (amphotericin B). Media and all media supplements were purchased from Gibco, Australia, except FBS that was from Sigma, USA.
(§2) Peripheral blood leukocytes (PBL) were obtained from venous blood of healthy volunteers by sedimentation on 2% dextran T-500 (Amersham Biosciences, USA) and subsequent centrifugations of leukocyte-rich plasma.
(§3) Peripheral blood leukocytes (PBL), isolated as described above, were seeded in a 48-well plate at a concentration of 3-5×10^6 cell per well in culture medium consisting of RPMI 1640 medium (Institute of Immunology, Croatia) supplemented with 10% heat-inactivated fetal calf serum (FCS, Biowhittaker, USA), 100 U/ml penicillin (Gibco, Australia), 100 μg/ml streptomycin (Gibco, Australia) and 2 mM L-glutamine (Gibco, Australia), and preincubated with the tested compounds for 2 h at 37° C., in an atmosphere of 5% CO2, and 90% humidity. Afterwards, stimuli (Sigma, USA) were added to a final concentration of 2 μg/mL lipopolysaccharide (LPS), 1 μg/mL phorbol 12-myristate 13-acetate (PMA) or 120 μg/mL zymosan. Samples were incubated overnight under conditions described above. At the end of incubation supernatants were transferred to eppendorf tubes and centrifuged for 10 min at 1500 g. Concentrations of human TNF-α, IL-1β, IL-6 and IL-8 were determined in cell supernatants by sandwich ELISA, using capture and detection antibodies (R&D, USA) according to manufacturer's recommendations.
(§4) Inhibition (as percentage) was calculated using the following formula: % inhibition=(1−concentration of cytokines in sample/concentration of cytokines in positive control)×100 where “positive control” refers to stimulated samples not treated with substances.

human IL-8 = assay: Inhibition of IL-8 production by stimulated human peripheral blood leukocytes in vitro (ELISA); conditions: PBL; for inhibition at 10 µM / inhibition at 50 µM: Homo sapiens, Leukocyte, read-out: Percentage of inhibition of IL-8 production
Description: as §1, §2, §3, §4

human TNF-α = assay: Inhibition of TNF-α production by stimulated human peripheral blood leukocytes in vitro (ELISA); conditions: PBL; for inhibition at 10 µM / inhibition at 50 µM: Homo sapiens, Leukocyte, read-out: Percentage of inhibition of TNF-α production
Description: as §1, §2, §3, §4

human IL-6 = assay: Inhibition of IL-6 production by stimulated human peripheral blood leukocytes in vitro (ELISA); conditions: PBL; for inhibition at 10 µM / inhibition at 50 µM: Homo sapiens, Leukocyte, read-out: Percentage of inhibition of IL-6 production
Description: as §1, §2, §3, §4

[1] = test system: human peripheral blood mononuclear cells (PBMC); assay: Human peripheral blood mononuclear cell proliferation in vitro ((3H)thymidine incorporation)
Description: as §1
Heparinized peripheral blood was obtained from healthy donors, and peripheral blood mononuclear cells (PBMC) were isolated by Histopaque 1077 (Sigma, USA) density centrifugation at 400 g for 30 minutes. Collected PBMC were centrifuged in plasma at 400 g/10 min, resuspended and washed in RPMI 1640 (Institute of Immunology, Croatia) by centrifugation.
Influence of substances at two different concentrations (50 μM and 10 μM) on proliferation of human peripheral blood mononuclear cells (PBMC) was assessed.
Heparinized peripheral blood was obtained from healthy donors, and PBMC were isolated by Histopaque 1077 (Sigma, USA) density centrifugation at 400 g for 30 minutes. 5×10^4 cells/well were cultured for 3 days in the RPMI medium as described above, in the presence (positive control) or absence (negative control) of stimulators [PHA (2.5 μg/mL) (Sigma, USA) or both PMA (10 ng/mL) (Sigma, USA) and ionomycin (500 ng/mL) (Calbiochem, USA)] and tested substances at 37° C. in 5% CO2 and 90% humidity. The cells were pulsed with 1 μCi of (^3H)thymidine (Amersham, USA) per well during the last 18 h of the cultures and were harvested on a 96-well filter (Packard Bioscience, USA) with a multiple cell harvester (Packard, USA). The incorporation of (^3H)thymidine in activated cells was measured by TopCount NXT (Packard, USA).
Inhibition of cell proliferation (as a percentage) was calculated using the following formula: % inhibition=(1−(^3H)thymidine incorporation expressed in counts per minute (cpm) in sample/(3H)thymidine incorporation expressed in cpm in positive control)×100 where “positive control” refers to stimulated samples not treated with substances.

Hep G2 = conditions: human, 24 h
Description: (§5) Anti-inflammatory activity of compounds, i.e. observed inhibition of cytokine production and inhibition of proliferation in vitro, is not a consequence of their cytotoxicity.
(§6) Measurement of the succinate dehydrogenase activity in living cells was performed in order to assess the cytotoxicity of compounds of the invention. Cells were cultured for 24 hours in RPMI medium as described above at 37° C., in the presence of the tested compounds at concentrations of 50 μM and 12.5 μM. Afterwards, MTT [3-(4,5-dimethylthiazole-2-yl)-2,5-diphenyl tetrazolium bromide] (Promega, USA) as detection reagent was added and incubated for 0.5-2 hours. The amount of produced MTT-Formazan was determined spectrophotometrically at 490 nm (Mosmann, J. Immunol. Methods, 1983, 65: 55-63).
(§7) Percentage of viable cells was calculated using the following formula: % viable cells=[…]

A549 = conditions: human, 24 h
Description: as §5, §6, §7

THP-1 = conditions: human, 24 h
Description: as §5, §6, §7

[2] = LPS stimulation, compound 10 μM
[3] = LPS stimulation, compound 50 μM
[4] = PMA stimulation, compound 10 μM
[5] = PMA stimulation, compound 50 μM
[6] = zymosan stimulation, compound 10 μM
[7] = zymosan stimulation, compound 50 μM

For “3-O-(3-Diethylamino-propionyl)-3-O-decladinosyl-6-O-methyl-9a-aza-9a-homoerythromycin A [Example 2]”, the “Percentage of inhibition of IL-1β production” value (human IL-1β; [2]) was 83%, the “Percentage of inhibition of IL-1β production” value (human IL-1β; [3]) was 91% and the “Percentage of inhibition of IL-1β production” value (human IL-1β; [4]) was 60%. For the same compound, the “Percentage of inhibition of IL-1β production” value (human IL-1β; [5]) was 78%, the “Percentage of inhibition of IL-1β production” value (human IL-1β; [6]) was 96% and the “Percentage of inhibition of IL-1β production” value (human IL-1β; [7]) was 94%. The “Percentage of inhibition of IL-8 production” value (human IL-8; [2]) was 40%, the “Percentage of inhibition of IL-8 production” value (human IL-8; [3]) was 96% and the “Percentage of inhibition of IL-8 production” value (human IL-8; [4]) was 0%. The “Percentage of inhibition of IL-8 production” value (human IL-8; [5]) was 92%, the “Percentage of inhibition of IL-8 production” value (human IL-8; [6]) was 32% and the “Percentage of inhibition of IL-8 production” value (human IL-8; [7]) was 87%. For the same compound, the “Percentage of inhibition of TNF-α production” value (human TNF-α; [2]) was 37%, the “Percentage of inhibition of TNF-α production” value (human TNF-α; [3]) was 80% and the “Percentage of inhibition of TNF-α production” value (human TNF-α; [4]) was 34%. The “Percentage of inhibition of TNF-α production” value (human TNF-α; [5]) was 55%, the “Percentage of inhibition of TNF-α production” value (human TNF-α; [6]) was 13% and the “Percentage of inhibition of TNF-α production” value (human TNF-α; [7]) was 60%. The “Percentage of inhibition of IL-6 production” value (human IL-6; [2]) was 40%, the “Percentage of inhibition of IL-6 production” value (human IL-6; [3]) was 94% and the “Percentage of inhibition of IL-6 production” value (human IL-6; [4]) was 17%. For the same compound, the “Percentage of inhibition of IL-6 production” value (human IL-6; [5]) was 68%, the “Percentage of inhibition of IL-6 production” value (human IL-6; [6]) was 45% and the “Percentage of inhibition of IL-6 production” value (human IL-6; [7]) was 91%. For the same compound, the “Percentage of inhibition of proliferation of stimulated PBMC” value ([1]; PHA stimulation, compound 10 μM) was 80%, the “Percentage of inhibition of proliferation of stimulated PBMC” value ([1]; PHA stimulation, compound 50 μM) was 98% and the “Percentage of inhibition of proliferation of stimulated PBMC” value ([1]; PMA + ionomycin stimulation, compound 10 μM) was 0%. The “Percentage of inhibition of proliferation of stimulated PBMC” value ([1]; PMA + ionomycin stimulation, compound 50 μM) was 99%.

For `CC[C@H]1OC(=O)[C@H](C)[C@@H](OC(=O)CCN2CCCN(CCCN3CCCC3)CC2)[C@H](C)[C@@H](O[C@@H]2O[C@H](C)C[C@H](N(C)C)[C@H]2O)[C@](C)(OC)C[C@@H](C)C(=O)N[C@H](C)[C@@H](O)[C@]1(C)O` [Example 24, 6-O-Methyl-3-O-decladinosyl-3-O{3-[4-(3-Pyrrolidin-1-yl-propyl)-[1,4]diazepan-1-yl]-propionyl}-9a-aza-9a-homoerythromycin A], the “Percentage of viable cells after treatment” value (“Percentage of viable cells” below) (Hep G2; 12.5 μM) was greater than 95%, the “Percentage of viable cells” value (Hep G2; 50 μM) was 100% and the “Percentage of viable cells” value (A549; 12.5 μM) was greater than 90%. For the same compound, the “Percentage of viable cells” value (A549; 50 μM) was greater than 90%, the “Percentage of viable cells” value (THP-1; 12.5 μM) was 100% and the “Percentage of viable cells” value (THP-1; 50 μM) was 100%. The inhibition at 10 µM (human IL-1β; [2]) was 65%, the inhibition at 50 µM (human IL-1β; [3]) was 98% and the inhibition at 10 µM (human IL-1β; [4]) was 84%. It also gave an inhibition at 50 µM (human IL-1β; [5]) of 98%, an inhibition at 10 µM (human IL-1β; [6]) of 70% and an inhibition at 50 µM (human IL-1β; [7]) of 100%. For the same compound, the inhibition at 10 µM (human IL-8; [2]) was 0%, the inhibition at 50 µM (human IL-8; [3]) was 94% and the inhibition at 10 µM (human IL-8; [4]) was 3%. It also gave an inhibition at 50 µM (human IL-8; [5]) of 81%, an inhibition at 10 µM (human IL-8; [6]) of 0% and an inhibition at 50 µM (human IL-8; [7]) of 92%. It also gave an inhibition at 10 µM (human TNF-α; [2]) of 0%, an inhibition at 50 µM (human TNF-α; [3]) of 91% and an inhibition at 10 µM (human TNF-α; [4]) of 65%. It also gave an inhibition at 50 µM (human TNF-α; [5]) of 68%, an inhibition at 10 µM (human TNF-α; [6]) of 0% and an inhibition at 50 µM (human TNF-α; [7]) of 92%. It also gave an inhibition at 10 µM (human IL-6; [2]) of 8%, an inhibition at 50 µM (human IL-6; [3]) of 98% and an inhibition at 10 µM (human IL-6; [4]) of 48%. It also gave an inhibition at 50 µM (human IL-6; [5]) of 89%, an inhibition at 10 µM (human IL-6; [6]) of 33% and an inhibition at 50 µM (human IL-6; [7]) of 100%.
